In paper PMC5546936, “CLE42 binding induces PXL2 interaction with SERK2” (Protein & Cell, 2017):
Where a SMILES comes first, the peptide text is derived from it. Where no end group is shown, it is not given here. [ ]: non-standard residue; d: D form. Hyp = O=C(O)[C@@H]1C[C@@H](O)CN1

B1: CLE42 (peptide)
peptide: HGV[Hyp]SG[Hyp]NPISN
B2: CLE41/44 or TDIF (tracheary elements differentiation inhibitory factor) (peptide)
peptide: HEV[Hyp]SG[Hyp]NPISN

Key:
[1] = target: T1, PXL2LRR (extracellular LRR domain protein of PXL2) (Arabidopsis thaliana, UniProt Q9M0G7); experiment: biochemical; format: binding
T1 construct: The LRR domain of PXL2 (residues 1-633, PXL2LRR) from Arabidopsis with an engineered; 6xHis (C); made in house; host or cells: High Five insect cells (baculovirus, pFastBac 1)
T1 sequence (Q9M0G7 24-633): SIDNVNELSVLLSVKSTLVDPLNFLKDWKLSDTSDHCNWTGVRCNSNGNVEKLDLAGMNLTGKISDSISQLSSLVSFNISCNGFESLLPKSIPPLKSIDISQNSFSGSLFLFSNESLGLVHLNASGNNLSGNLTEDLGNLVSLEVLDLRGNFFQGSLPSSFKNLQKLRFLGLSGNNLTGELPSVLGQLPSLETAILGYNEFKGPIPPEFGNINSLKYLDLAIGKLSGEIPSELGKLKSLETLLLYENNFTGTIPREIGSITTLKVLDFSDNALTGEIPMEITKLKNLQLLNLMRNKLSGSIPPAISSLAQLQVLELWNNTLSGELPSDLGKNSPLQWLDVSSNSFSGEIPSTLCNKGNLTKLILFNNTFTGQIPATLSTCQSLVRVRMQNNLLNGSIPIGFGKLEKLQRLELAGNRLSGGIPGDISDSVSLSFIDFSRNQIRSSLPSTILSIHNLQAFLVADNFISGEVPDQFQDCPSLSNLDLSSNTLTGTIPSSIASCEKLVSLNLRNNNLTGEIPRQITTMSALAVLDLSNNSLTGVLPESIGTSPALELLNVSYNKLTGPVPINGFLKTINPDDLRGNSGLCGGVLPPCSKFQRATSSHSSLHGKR
Method: (C) Measurement of the binding affinity between PXL2^LRR and CLE42 by ITC. Top panel: twenty injections of CLE42 solution were titrated into PXL2^LRR in the ITC cell. The area of each injection peak corresponds to the total heat released for that injection. Bottom panel: the binding isotherm for PXL2^LRR-CLE42 interaction. The integrated heat is plotted against the molar ratio between CLE42 and PXL2^LRR. […] The assay was performed as described in (C).

[2] = target: extracellular LRR domain protein of PXL2 (PXL2^LRR) (Arabidopsis thaliana); experiment: ITC; twenty injections of peptide solution titrated into PXL2^LRR in the ITC cell

| Molecule | Kd [1] | Kd [2] | also measured |
| --- | --- | --- | --- |
| CC[C@H](C)[C@H](NC(=O)[C@@H]1CCCN1C(=O)[C@H](CC(N)=O)NC(=O)[C@@H]1C[C@@H](O)CN1C(=O)CNC(=O)[C@H](CO)NC(=O)[C@@H]1C[C@@H](O)CN1C(=O)[C@@H](NC(=O)CNC(=O)[C@@H](N)Cc1c[nH]cn1)C(C)C)C(=O)N[C@@H](CO)C(=O)N[C@@H](CC(N)=O)C(=O)O [CLE42, His-Gly-Val-Hyp-Ser-Gly-Hyp-Asn-Pro-Ile-Ser-Asn] (H-HGV[Hyp]SG[Hyp]NPISN-OH) | 2.75 µM |  |  |
| RLV[Hyp]SG[Hyp]NPLHH [CLE13, negative control] |  |  | interaction with PXL2LRR by ITC ([1]; ITC200, 25 °C, 10 mM Bis-Tris pH 6.0, 100 mM NaCl, approximately 0.5 mM peptide, 0.05 mM PXL2LRR, repeated at least three times, negative control): no detectable interaction |
| CC[C@H](C)[C@H](NC(=O)[C@@H]1CCCN1C(=O)[C@H](CC(N)=O)NC(=O)[C@@H]1C[C@@H](O)CN1C(=O)CNC(=O)[C@H](CO)NC(=O)[C@@H]1C[C@@H](O)CN1C(=O)[C@@H](NC(=O)[C@H](CCC(=O)O)NC(=O)[C@@H](N)Cc1c[nH]cn1)C(C)C)C(=O)N[C@@H](CO)C(=O)N[C@@H](CC(N)=O)C(=O)O [CLE41, His-Glu-Val-Hyp-Ser-Gly-Hyp-Asn-Pro-Ile-Ser-Asn] (H-HEV[Hyp]SG[Hyp]NPISN-OH) | 10 µM |  |  |
| B1 |  | 2.75 µM |  |
| B2 |  | 10 µM |  |
